These results are taken from patent US20110319790A1, “PHARMACEUTICAL COMPOSITION AND SYSTEM FOR PERMEABILIZING FETAL MEMBRANES” (B.G. NEGEV TECHNOLOGIES AND APPLICATIONS LTD., priority 2008, published 2011).

This test concerns postpartum human fetal membranes. The test is described as follows: Permeability of postpartum human fetal membranes to FITC-Dextran in a vertical glass diffusion cell after incubation with a substance. The note with it: FIG. 8, 30 minutes incubation, FITC-Dextran 77 KDa, maternal side facing donor compartment. The procedure:
The permeability of postpartum human fetal membranes (obtained from Hillel Yaffe Medical Center, Israel) upon exposure to different substances was determined. The experimental set-up used is shown schematically in FIG. 7. […] The membrane 171 was first incubated with a substance 176 added to the donor compartment 173. After 30 minutes of incubation, the substance was removed from the donor compartment 173. The donor compartment was then washed with PBS, and the donor and receiver compartments were filled with 0.01M phosphate buffered Saline (PBS) 175. 5 mL of a 0.5 mg/mL Dextran solution in PBS (average molecular weight of the Dextran 77 KDa) conjugated to the fluorescent label FITC (fluorescein isothiocyanate-Dextran)) 179 was added to the donor compartment 173. The diffusion cell 172 was protected from light in order to prevent fluorescent bleaching of the FITC. 1 mL samples were withdrawn from the receiver compartment 174 at various times with constant stirring of the receiver compartment, and the concentration of the FITC in the samples was determined spectofluorimetrically.
From the rate of increase in the concentration of the fluorescence in the receiver compartment 174, the extent of permeability enhancement of the membrane, in comparison to a control experiment was calculated.

For `CN1CCCC1=O` [N-methy-2-pyrrolidone (NMP), N-methy-2-pyrrolidone], under “concentration not given”, the “enhancement in permeability of the membrane compared to control” value (from here on “enhancement … compared to control”) is recorded as “Enhanced permeability”. `CC(C)CCCCCCCCCCCCCCC(=O)O` [iso-stearic acid]: the “enhancement … compared to control” value (substance at 10%) is given as “Enhanced permeability”. `CCCCCCCCCCCCOS(=O)(=O)[O-].[Na+]` [SLS, sodium lauryl sulfate]: the “enhancement … compared to control” value (substance at 1%) was “Enhanced permeability”. Consider `CCCCN1CCCCC1C(=O)Nc1c(C)cccc1C` (stereo not shown) [bupivacaine], for which the “enhancement … compared to control” value (substance at 0.5%) is “Enhanced permeability”. As for `CCCCCCCC/C=C\CCCCCCCC(=O)O` [Oleic acid], for the setting “substance at 1.5%”, the “enhancement … compared to control” value is listed as “Enhanced permeability”.

For the compound `CCCCCCCCCCCCCCCC[N+](C)(C)C.[Br-]` [Cetyl trimethylammonium bromide (CTAB), Cetyl trimethylammonium bromide], the “enhancement … compared to control” value (substance at 4%) is on record as “Enhanced permeability”. As for `OCCO` [ethylene glycol], the “enhancement … compared to control” value (substance at 10%) is given as “Enhanced permeability”.
